Like-named read-outs stand apart in the source and are kept apart here.

A short description of series [1]: in vitro. Conditions: ZIKV CC50. The format is cell-based. How it is done: (§1) Finally, the ability of all the derivatives synthesized in this work to inhibit ZIKV replication was assessed. […]
Another series relates to host cell. The experiment in a line: in vitro. The format is cell-based. How it is done: as §1
In another series the test system is ZIKV. The experiment in a line: CPE-reduction assay, inhibition of ZIKV replication. Also noted: species or system Zika virus (ZIKV). Conditions: cell-based CPE-reduction assay; for EC50: Zika virus. How it is done:
as §1

The next series has as its target T1, hRNMT (human N7-MTase) (Homo sapiens, UniProt O43148).
T1 construct: 6His (N); made in house; host or cells: E. coli Rosetta (DE3)
The experiment in a line: MTase inhibition assay ([3H]-SAM, GpppAC4 RNA substrate, DEAE filter binding). The format is biochemical. Conditions: dose-response, 200 nM hRNMT, 10 µM AdoMet, 30 min at 30 °C. The protocol: (§2) The library of compounds 9, 11, 12, 14, 15, 16 and 21 was then assessed on different purified recombinant MTases. All compounds were initially screened at 50 μM against ZIKV NS5‐MTase and hRNMT as well as against DENV NS5‐MTase due to its similarity with ZIKV protein. The SAM mimetic sinefungin was included as control.
(§3) The MTases were incubated with radiolabeled [^3H]‐SAM together with the GpppAC4 RNA substrate and the different compounds at 50 μM. The reaction was stopped after 30 mins at 30 °C. The sample products were filtered on a DEAE membrane to remove non‐incorporated [^3H]‐SAM, and radioactivity transferred on the RNA substrate was counted. […]
(§4) DENV, ZIKV and hRNMT MTase production and purification
(§5) The coding sequence of the ZIKV MTase domain was cloned in pDest 14 (Invitrogen) expression vector as recently described,9 and the DENV and ZIKV MTase were produced and purified following the protocols applied for the DENV MTase.10 The human N7-MTase (hRNMT) was cloned in pDest 14 (Invitrogen) expression vector as described.11 The hRNMT was produced in e.coli Rosetta (DE3) cells transformed with pDest14/6His -hRNMT and purified on immobilized-metal-affinity chromatography (IMAC, Amersham Biosciences) followed by hearine, as described previously.11
(§6) The MTase activity of the different recombinant proteins was assayed upon pre -incubation of the MTase (5 min) with a selected fragment and the reactions were started by addition of a […]
(§7) small capped RNA substrate GpppAC4 with the [3H]AdoMet.12 The MTase activity assay was performed in 20 µl samples containing 40 mM Tris-HCl pH 7.5, 5 mM DTT (except for hRNMT), 10 µM AdoMet (0.2-2 µCi [3H]SAM), 1 µM of DENV or ZIKV MTase or 200 nM of hRNMT, 1 µM GpppAC4 in presence of 1µl of compounds solubilized in DMSO 100%.
(§8) Reactions were incubated at 30°C for 30 min and stopped by 20-fold dilution in an ice-cold 100 µM AdoHcy (SAH) solution. Samples were then transferred onto a DEAE membrane (DEAE Filtermat; Wallac) by using a Filtermat Harvester (Packard Instruments) washed with 0.01 M ammonium formate (pH 8.0), water and 95 % ethanol, and the radioactivity transferred onto RNA was measured using a Wallac 1450 MicroBeta Trilux Liquid Scintillation Counter.
(§9) The inhibitor concentration at 50% activity (IC50) was determined by performing the MTase assays in presence of serial dilution of the inhibitor in DMSO (final concentration in the assay 5%). All data points were measured in duplicate. The IC50 values were determined by curve fitting with Prism software using a logistic dose-response function: % activity = 100/(1+[I]/IC50)b, where b corresponds to the slope factor and [I] to inhibitor concentration. […]
(§10) Spectrometer using low-resolution ESI or high-resolution nano ESI techniques. The purity of the compounds was assessed by reverse -phase liquid chromatography coupled with a mass spectrometer (Agilent series 1100 LC/MSD) with a UV detector at λ = 254 nm and an electrospray ionization source (ESI). HPLC analysis was carried out using a Perkin -Elmer 1100 HPLC system coupled with UV/Vis set to 254 nm. Mass spectra were acquired in positive mode scanning over the mass range of 50–1500. The following ion source parameters were used: drying gas flow, […]; nebulize pressure, 40 psig; and drying gas temperature, 350 […]
(§11) performed using commercially available pre-coated plates and visualized with UV light at 254 nm; KMnO4 was used to reveal the products. Flash column chromatography was carried out using Sigma Aldrich silica gel particle size, 40-63 µm particle size 60 Å. All reactions were conducted under a nitrogen atmosphere in oven-dried glassware unless stated otherwise. All solvents and commercially available reagents were used as received.

The next series concerns the target T2, ZIKV NS5-MTase (Zika virus, UniProt Q32ZE1).
T2 construct: made in house
Described as above. The format is biochemical. The note with it: for inhibition at 50 µM / inhibition of ZIKV NS5-MTase: initial screen, compounds at 50 μM, 30 min at 30 °C. The protocol: as §2, §3, §4, §5, §6, §7, §8, §9, §10, §11

Another series concerns DENV. The experiment in a line: Cell-based antiviral activity against DENV. Conditions: Dengue virus; cell-based assay.
A further series addresses DENV NS5-MTase (Dengue virus type 3, UniProt P27915). The experiment in a line: MTase inhibition assay ([3H]-SAM, GpppAC4 RNA substrate, DEAE filter binding). Conditions: initial screen, compounds at 50 μM, 30 min at 30 °C. The format is biochemical. How it is done: as §2, §3, §4, §5, §6, §7, §8, §9, §10, §11
Series [2] can be described thus: in vitro. The format is cell-based.

T2 sequence (Q32ZE1 2517-2781): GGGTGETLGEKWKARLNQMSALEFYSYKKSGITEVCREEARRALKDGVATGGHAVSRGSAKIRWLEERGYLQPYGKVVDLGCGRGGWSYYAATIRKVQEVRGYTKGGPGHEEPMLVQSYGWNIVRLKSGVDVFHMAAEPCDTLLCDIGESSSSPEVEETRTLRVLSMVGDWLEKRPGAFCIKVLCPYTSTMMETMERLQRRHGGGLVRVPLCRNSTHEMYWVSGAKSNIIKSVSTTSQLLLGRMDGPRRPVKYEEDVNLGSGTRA
T1 sequence (O43148 whole entry): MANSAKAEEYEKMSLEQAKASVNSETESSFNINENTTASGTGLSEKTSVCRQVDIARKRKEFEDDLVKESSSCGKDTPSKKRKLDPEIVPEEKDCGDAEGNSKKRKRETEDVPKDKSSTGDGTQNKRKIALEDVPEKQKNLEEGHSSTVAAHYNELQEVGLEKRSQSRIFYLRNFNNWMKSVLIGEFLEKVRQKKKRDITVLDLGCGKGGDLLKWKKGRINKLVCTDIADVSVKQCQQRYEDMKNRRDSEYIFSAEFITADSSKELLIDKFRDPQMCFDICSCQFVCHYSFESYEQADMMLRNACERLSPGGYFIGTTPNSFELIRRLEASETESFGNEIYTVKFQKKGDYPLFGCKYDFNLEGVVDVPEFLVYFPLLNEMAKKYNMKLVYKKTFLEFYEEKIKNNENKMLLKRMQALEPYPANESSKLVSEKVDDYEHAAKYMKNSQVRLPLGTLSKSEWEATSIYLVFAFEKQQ
Chain of DENV NS5-MTase (P27915 2491-2753): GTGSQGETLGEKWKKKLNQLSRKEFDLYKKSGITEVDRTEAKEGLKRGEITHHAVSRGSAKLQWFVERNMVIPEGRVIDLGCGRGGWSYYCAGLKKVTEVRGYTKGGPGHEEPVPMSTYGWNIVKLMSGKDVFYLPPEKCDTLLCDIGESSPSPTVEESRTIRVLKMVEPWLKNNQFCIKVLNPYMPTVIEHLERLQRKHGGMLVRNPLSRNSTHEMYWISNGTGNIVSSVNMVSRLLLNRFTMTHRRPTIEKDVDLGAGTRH

Compound `CCn1c2ccccc2c2cc(NC(=O)Nc3ccc([N+](=O)[O-])cc3C)ccc21` [Compound 6] yielded a CC50 in the series “in vitro [1]” above 3.99 µM. The compound further had a CC50 with host cell of 3.99 µM. Further, in the series on ZIKV, the EC50 is above 3.99 µM and the “ZIKV EC50” value is “devoid of any antiviral activity”. The compound further registered an IC50 on hRNMT (human N7-MTase) of 13.9 ± 0.7 µM. On ZIKV NS5-MTase, this compound gave an IC50 of 35 ± 5 µM and an inhibition at 50 µM above 30%.

`CCn1c2ccccc2c2cc(NC(=O)Nc3ccc([N+](=O)[O-])cc3Cl)ccc21` [Compound 9a]: it took 30.7 µM to reach half-maximal cytotoxicity in “in vitro [1]” (CC50). In the series on ZIKV, this compound had an EC50 above 50 µM. At hRNMT (human N7-MTase), the IC50 was around 122 µM. For the same compound, at ZIKV NS5-MTase, the IC50 is 46 ± 1.1 µM and the inhibition at 50 µM was above 30%.

`CCn1c2ccccc2c2cc(NC(=O)Nc3ccc(C#N)cc3)ccc21` [Compound 9b]: the CC50 in the series “in vitro [1]” is above 10 µM. Further, the EC50 with ZIKV was above 10 µM. For the same compound, the IC50 on hRNMT (human N7-MTase) was around 253 µM; at ZIKV NS5-MTase, around 144 µM.

In turn, `CCn1c2ccccc2c2cc(NC(=O)Nc3ccc(OC)cc3OC)ccc21` [Compound 9c] came in with a CC50 in the series “in vitro [1]” above 10 µM. Further, the EC50 in the series on ZIKV is above 10 µM. The compound also registered an IC50 on hRNMT (human N7-MTase) of 27.4 ± 1.9 µM.

In the series “in vitro [1]”, `CCn1c2ccccc2c2cc(NC(=O)Nc3ccc(I)cc3)ccc21` [Compound 9d] registered a CC50 above 50 µM. Also, in the series with ZIKV, the EC50 was above 50 µM. The IC50 at hRNMT (human N7-MTase) came to 5.3 ± 0.4 µM. At ZIKV NS5-MTase, the IC50 is around 397 µM and the inhibition at 50 µM is above 30%.

Regarding `CCn1c2ccccc2c2cc(NC(=O)Nc3ccc(C(F)(F)F)cc3)ccc21` [Compound 9f], the IC50 at hRNMT (human N7-MTase) amounted to 6.8 ± 0.5 µM.

`CCn1c2ccccc2c2cc(NC(=S)NCc3ccccc3)ccc21` [Compound 11b] returned a CC50 in “in vitro [1]” of 19.6 µM. This compound also registered an EC50 in the series on ZIKV of 4.78 µM. For the same compound, the results for the IC50 on hRNMT (human N7-MTase) and on ZIKV NS5-MTase were around 112 µM and 70 ± 1.3 µM, respectively.

`CCn1c2ccccc2c2cc(NC(=O)Nc3ccc(N)cc3C)ccc21` [Compound 15]: the EC50 in the series with DENV was determined as 9.75 µM; with ZIKV it was 1.67 µM. Also, the results for the CC50 in the series “in vitro [1]” and in “in vitro [2]” were above 12.5 µM and 20 µM, respectively. Moreover, the “inhibition of DENV NS5-MTase” value at DENV NS5-MTase is on record as “did not show any effect”. The inhibition at 50 µM on ZIKV NS5-MTase worked out at 25%.

As for `CCn1c2ccccc2c2cc(NC(=O)C(N)CCCCN)ccc21` (stereo not shown) [Compound 16], at ZIKV NS5-MTase, the “inhibition of ZIKV NS5-MTase” value is on record as “barely inhibited”.

`Cc1cc([N+](=O)[O-])ccc1NC(=O)Nc1ccc2c(c1)c1ccccc1n2CCc1ccccc1` [Compound 21b] came in with a CC50 in “in vitro [1]” of 20 µM. Moreover, in the series with host cell, the “ZIKV CC50” value is reported as “showed toxicity”. Besides, the EC50 in the series on ZIKV is 12.5 µM. Besides, at ZIKV NS5-MTase, the IC50 was 114 ± 1.3 µM and the inhibition at 50 µM is above 30%.

On ZIKV NS5-MTase, `O=C(Nc1ccc(I)cc1)Nc1ccc2c(c1)c1ccccc1n2Cc1ccccc1` [Compound 21c] gave an IC50 of 23 ± 1.2 µM and an inhibition at 50 µM above 30%.

Regarding `O=C(Nc1ccc(I)cc1)Nc1ccc2c(c1)c1ccccc1n2CCc1ccccc1` [Compound 21d], in “in vitro [1]”, the 50% cytotoxic concentration (CC50) worked out at 100 µM. Besides, in the series on ZIKV, the response was half-maximal at 25 µM (EC50). The “inhibition of ZIKV NS5-MTase” value on ZIKV NS5-MTase is recorded as “poor inhibition”.

With `COc1ccc(NC(=O)Nc2ccc3c(c2)c2ccccc2n3Cc2ccccc2)c(OC)c1` [Compound 21e], on ZIKV NS5-MTase, the IC50 is 48 ± 1.3 µM.

`COc1ccc(NC(=O)Nc2ccc3c(c2)c2ccccc2n3CCc2ccccc2)c(OC)c1` [Compound 21f]: in the series “in vitro [1]”, the CC50 is 20 µM. Moreover, the “ZIKV CC50” value in the series on host cell is “showed toxicity”. In addition, the concentration for a half-maximal effect (EC50) with ZIKV was above 20 µM. For the same compound, the IC50 at ZIKV NS5-MTase stood at 26 ± 1.2 µM.

In the case of `Nc1ncnc2c1ncn2[C@@H]1O[C@H](C[C@@H](N)CC[C@H](N)C(=O)O)[C@@H](O)[C@H]1O` [Sinefungin, reference compound], at ZIKV NS5-MTase, the IC50 came out at 1.18 ± 0.05 µM.

These data come from paper PMC7106487, “Design, Synthesis and Discovery of N,N’‐Carbazoyl‐aryl‐urea Inhibitors of Zika NS5 Methyltransferase and Virus Replication” (Chemmedchem, 2020).
